How the values were obtained:
Mus musculus [1] = assay: Analgesic activity in iv dosed ICR mouse assessed as reduction in acetic acid induced writhing administered for 15 mins followed by acetic acid injection and measured within 15 mins; assay type: functional; conditions: 0.5 h, time 30 min
Rattus norvegicus [2] = organism: Rattus norvegicus; assay: Anti-hyperalgesic activity in carrageenan-induced mechanical hyperalgesia Sprague-Dawley rat model assessed as paw withdrawal threshold measured after 2.5 hrs by paw pressure test; assay type: functional
Rattus norvegicus [3] = organism: Rattus norvegicus; assay: Antiinflammatory activity in carrageenan-induced Sprague-Dawley rat assessed as paw withdrawal threshold measured after 2.5 hrs by paw pressure test; assay type: functional
Mus musculus [4] = assay: Analgesic activity in acetic acid induced ICR mouse assessed as average writhing times at 0.13 mg/kg, iv administered for 15 mins followed by acetic acid injection and measured within 15 mins (reference value: 21.1 +/- 16.3); assay type: functional; conditions: time 30 min, 0.5 h
Mus musculus [5] = assay: Analgesic activity in acetic acid induced ICR mouse assessed as average writhing times at 0.25 mg/kg, iv administered for 15 mins followed by acetic acid injection and measured within 15 mins (reference value: 21.1 +/- 16.3); assay type: functional; conditions: time 30 min, 0.5 h
Mus musculus [6] = assay: Analgesic activity in acetic acid induced ICR mouse assessed as average writhing times at 0.50 mg/kg, iv administered for 15 mins followed by acetic acid injection and measured within 15 mins (reference value: 21.1 +/- 16.3); assay type: functional; conditions: dose 0.5 mg/kg, time 30 min
Mus musculus [7] = assay: Analgesic activity in acetic acid induced ICR mouse assessed as average writhing times at 1 mg/kg, iv administered for 15 mins followed by acetic acid injection and measured within 15 mins (reference value: 21.1 +/- 16.3); assay type: functional; conditions: time 30 min, 0.5 h
Mus musculus [8] = assay: Antinociceptive activity in acetic acid induced ICR mouse assessed as inhibition effect at 0.13 mg/kg, iv administered for 15 mins followed by acetic acid injection and measured within 15 mins; assay type: functional; conditions: 0.5 h, time 30 min
Mus musculus [9] = assay: Antinociceptive activity in acetic acid induced ICR mouse assessed as inhibition effect at 0.25 mg/kg, iv administered for 15 mins followed by acetic acid injection and measured within 15 mins; assay type: functional; conditions: 0.5 h, time 30 min
Mus musculus [10] = assay: Antinociceptive activity in acetic acid induced ICR mouse assessed as inhibition effect at 0.50 mg/kg, iv administered for 15 mins followed by acetic acid injection and measured within 15 mins; assay type: functional; conditions: 0.5 h, time 30 min
Mus musculus [11] = assay: Antinociceptive activity in acetic acid induced ICR mouse assessed as inhibition effect at 1 mg/kg, iv administered for 15 mins followed by acetic acid injection and measured within 15 mins; assay type: functional; conditions: 0.5 h, time 30 min
[12] = Drug metabolism in Sprague-Dawley rat plasma assessed as trans-(S)-2-(4-(((1S,2R)-2-Hydroxycyclopentyl)methyl)phenyl)propanoic acid metabolite formation at 3 mg/kg, iv measured after 2 hrs by UHPLC-MS/MS analysis; assay type: ADME, organism-based; conditions: in vivo
[13] = Drug metabolism in Sprague-Dawley rat plasma assessed as cis-(R)-2-(4-(((1R,2R)-2-Hydroxycyclopentyl)methyl)phenyl)propanoic acid metabolite formation at 3 mg/kg, iv measured after 2 hrs by UHPLC-MS/MS analysis; assay type: ADME, organism-based; conditions: in vivo
[14] = Drug metabolism in Sprague-Dawley rat plasma assessed as cis-(R)-2-(4-(((1S,2S)-2-hydroxycyclopentyl)methyl)phenyl)propanoic acid metabolite formation at 3 mg/kg, iv measured after 2 hrs by UHPLC-MS/MS analysis; assay type: ADME, organism-based; conditions: in vivo
[15] = Drug metabolism in Sprague-Dawley rat plasma assessed as trans-(R)-2-(4-(((1S,2R)-2-Hydroxycyclopentyl)methyl)phenyl)propanoic acid metabolite formation at 3 mg/kg, iv measured after 2 hrs by UHPLC-MS/MS analysis; assay type: ADME, organism-based; conditions: in vivo
[16] = Drug metabolism in Beagle dog plasma assessed as cis-(R)-2-(4-(((1R,2R)-2-Hydroxycyclopentyl)methyl)phenyl)propanoic acid metabolite formation at 3 mg/kg, iv measured after 2 hrs by UHPLC-MS/MS analysis; assay type: ADME, organism-based, Canis lupus familiaris; conditions: in vivo
[17] = Drug metabolism in Beagle dog plasma assessed as cis-(R)-2-(4-(((1S,2S)-2-hydroxycyclopentyl)methyl)phenyl)propanoic acid metabolite formation at 3 mg/kg, iv measured after 2 hrs by UHPLC-MS/MS analysis; assay type: ADME, organism-based, Canis lupus familiaris; conditions: in vivo
[18] = Drug metabolism in Beagle dog plasma assessed as trans-(R)-2-(4-(((1S,2R)-2-Hydroxycyclopentyl)methyl)phenyl)propanoic acid metabolite formation at 3 mg/kg, iv measured after 2 hrs by UHPLC-MS/MS analysis; assay type: ADME, organism-based, Canis lupus familiaris; conditions: in vivo
[19] = Plasma protein binding in Sprague-Dawley rat at 600 to 15000 ng/ml measured after 6 hrs by LC-MS/MS analysis; assay type: ADME, cell-free; conditions: dose 600-15000 ng/ml, read-out: PPB
[20] = Plasma protein binding in CD-1 mouse at 600 to 15000 ng/ml measured after 6 hrs by LC-MS/MS analysis; assay type: ADME, cell-free; conditions: dose 600-15000 ng/ml, read-out: PPB
[21] = Plasma protein binding in Beagle dog at 600 to 15000 ng/ml measured after 6 hrs by LC-MS/MS analysis; assay type: ADME, cell-free, Canis lupus familiaris; conditions: dose 600-15000 ng/ml, read-out: PPB
[22] = Plasma protein binding in cynomolgus monkey at 600 to 15000 ng/ml measured after 6 hrs by LC-MS/MS analysis; assay type: ADME, cell-free, Macaca fascicularis; conditions: dose 600-15000 ng/ml, read-out: PPB
[23] = Plasma protein binding in human at 600 to 15000 ng/ml measured after 1 to 8 hrs by LC-MS/MS analysis; assay type: ADME, cell-free; conditions: dose lower 600 ng/ml, time lower 1 hrs, dose upper 15000 ng/ml, time upper 8 hrs, read-out: PPB
[24] = Toxicity in male Sprague-Dawley rat assessed as decrease in RBC level at 10 mg/kg , iv administered every day for 4 weeks; assay type: organism-based, Erythrocyte; set-up: scale not given: the % may be the effect or the level left; conditions: in vivo, 672 h
[25] = Toxicity in female Sprague-Dawley rat assessed as decrease in RBC level at 10 mg/kg , iv administered every day for 4 weeks; assay type: organism-based, Erythrocyte; set-up: scale not given: the % may be the effect or the level left; conditions: in vivo, 672 h
[26] = Toxicity in male Sprague-Dawley rat assessed as decrease in hemoglobin level at 10 mg/kg , iv administered every day for 4 weeks; assay type: organism-based; set-up: scale not given: the % may be the effect or the level left; conditions: in vivo, 672 h
[27] = Toxicity in female Sprague-Dawley rat assessed as decrease in hemoglobin level at 10 mg/kg , iv administered every day for 4 weeks; assay type: organism-based; set-up: scale not given: the % may be the effect or the level left; conditions: in vivo, 672 h
[28] = Toxicity in Sprague-Dawley rat assessed as change in red cell distribution width at 10 mg/kg , iv administered every day for 4 weeks; assay type: organism-based; conditions: in vivo, 672 h
[29] = Toxicity in Sprague-Dawley rat assessed as change in mean corpuscular hemoglobin concentration at 10 mg/kg , iv administered every day for 4 weeks; assay type: organism-based; conditions: in vivo, 672 h
[30] = Toxicity in Sprague-Dawley rat assessed as effect on reticulocytes at 10 mg/kg , iv administered every day for 4 weeks; assay type: organism-based; conditions: in vivo, 672 h
[31] = Toxicity in Sprague-Dawley rat assessed as change in RBC level at 10 mg/kg , iv administered every day for 4 weeks and measured after 8 weeks; assay type: organism-based, Erythrocyte; conditions: in vivo, 1344 h
[32] = Toxicity in Sprague-Dawley rat assessed as change in hemoglobin level at 10 mg/kg , iv administered every day for 4 weeks and measured after 8 weeks; assay type: organism-based; conditions: in vivo, 1344 h
[33] = Toxicity in Sprague-Dawley rat assessed as red cell distribution width at 10 mg/kg , iv administered every day for 4 weeks and measured after 8 weeks; assay type: organism-based; conditions: in vivo, 1344 h
[34] = Toxicity in Sprague-Dawley rat assessed as change in mean corpuscular hemoglobin concentration at 10 mg/kg , iv administered every day for 4 weeks and measured after 8 weeks; assay type: organism-based; conditions: in vivo, 1344 h
[35] = Toxicity in Sprague-Dawley rat assessed as effect on reticulocytes at 10 mg/kg , iv administered every day for 4 weeks and measured after 8 weeks; assay type: organism-based; conditions: in vivo, 1344 h
[36] = Toxicity in Beagle dog assessed as change in RBC level at 10 mg/kg , iv administered every day for 4 weeks; assay type: organism-based, Canis lupus familiaris, Erythrocyte; conditions: in vivo, 672 h
[37] = Toxicity in Beagle dog assessed as change in hemoglobin level at 10 mg/kg , iv administered every day for 4 weeks; assay type: organism-based, Canis lupus familiaris; conditions: in vivo, 672 h
[38] = Toxicity in Beagle dog assessed as change in red cell distribution width at 10 mg/kg , iv administered every day for 4 weeks; assay type: organism-based, Canis lupus familiaris; conditions: in vivo, 672 h
[39] = Toxicity in Beagle dog assessed as change in mean corpuscular hemoglobin concentration at 10 mg/kg , iv administered every day for 4 weeks; assay type: organism-based, Canis lupus familiaris; conditions: in vivo, 672 h
[40] = Toxicity in Beagle dog assessed as effect on reticulocytes at 10 mg/kg, iv administered every day for 4 weeks; assay type: organism-based, Canis lupus familiaris; conditions: in vivo, 672 h
[41] = Toxicity in NZW rabbit assessed as infiltration of inflammatory cells at 10 mg/kg/day, iv administered once daily for 7 days and measured after 3 to 14 days by H and E staining based optical microscopy analysis; assay type: organism-based, Oryctolagus cuniculus; conditions: in vivo, time 3-14 day
[42] = Toxicity in NZW rabbit assessed as necrosis in endothelial cells at 10 mg/kg/day, iv administered once daily for 7 days and measured after 3 to 14 days by H and E staining based optical microscopy analysis; assay type: organism-based, Oryctolagus cuniculus; conditions: in vivo, time 3-14 day
[43] = Solubility of the compound in pre-warmed distilled water at 500 mg measured after 30 mins by HPLC analysis; assay type: physicochemical

`C[C@H](C(=O)O)c1ccc(C[C@H]2CCC[C@@H]2O)cc1.NC(CO)(CO)CO` showed an ED50 (Mus musculus [1]) of 0.43 mg/kg, an ED50 (Rattus norvegicus [2]) of 1.28 mg/kg and an ED50 (Rattus norvegicus [3]) of 8.01 mg/kg. For the same compound, the Activity (Mus musculus [4]) was 19, the Activity (Mus musculus [5]) was 12.8 and the Activity (Mus musculus [6]) was 7.7. For the same compound, the Activity (Mus musculus [7]) was 6.7, the inhibition in vivo at 0.13 mg/kg (Mus musculus [8]) was 10% and the inhibition in vivo at 0.25 mg/kg (Mus musculus [9]) was 39.3%. For the same compound, the inhibition in vivo at 0.5 mg/kg (Mus musculus [10]) was 63.5%, the inhibition in vivo at 1 mg/kg (Mus musculus [11]) was 68.2% and the Drug metabolism [12] was “Metabolite_Notdetected”. The Drug metabolism [13] was “Metabolite_Notdetected”, the Drug metabolism [14] was “Metabolite_Notdetected” and the Drug metabolism [15] was “Metabolite_Notdetected”. For the same compound, the Drug metabolism [16] was “Metabolite_Notdetected”, the Drug metabolism [17] was “Metabolite_Notdetected” and the Drug metabolism [18] was “Metabolite_Notdetected”. For the same compound, the fraction unbound at 6 h [19] was under 0.3, the fraction unbound at 6 h [20] was under 0.3 and the fraction unbound at 6 h [21] was under 0.3. It also gave a fraction unbound at 6 h [22] of under 0.3, a fraction unbound [23] of under 0.05 and an Activity [24] of under 10%. For the same compound, the Activity [25] was under 10%, the Activity [26] was under 10% and the Activity [27] was under 10%. For the same compound, the Activity [28] was “Non-Toxic”, the Activity [29] was “Non-Toxic” and the Activity [30] was “Non-Toxic”. For the same compound, the Activity [31] was “Non-Toxic”, the Activity [32] was “Non-Toxic” and the Activity [33] was “Non-Toxic”. The Activity [34] was “Non-Toxic”, the Activity [35] was “Non-Toxic” and the Activity [36] was “Non-Toxic”. For the same compound, the Activity [37] was “Non-Toxic”, the Activity [38] was “Non-Toxic” and the Activity [39] was “Non-Toxic”. For the same compound, the Activity [40] was “Non-Toxic”, the Activity [41] was “Non-Toxic” and the Activity [42] was “Non-Toxic”. It also gave a solubility at 0.5 h [43] of 176 mg/mL.

Reference: ChEMBL document CHEMBL5154819 (Eur J Med Chem, 2022)
